Assay results taken from patent US11117900B2 (Vertex Pharmaceuticals Incorporated, priority 2012, dated 2021).
pKi: −log10 of the molar value.

Legend:
full-length ATR = full-length ATR (Homo sapiens (Human), UniProt Q13535); experiment: ATR inhibition assay (radioactive-phosphate incorporation); format: biochemical; conditions: Ki(app), 5 nM full-length ATR, 10 μM ATP, 25° C.
Experimental: Compounds were screened for their ability to inhibit ATR kinase using a radioactive-phosphate incorporation assay. Assays were carried out in a mixture of 50 mM Tris/HCl (pH 7.5), 10 mM MgCl2 and 1 mM DTT. Final substrate concentrations were 10 μM [γ-33P]ATP (3 mCi 33P ATP/mmol ATP, Perkin Elmer) and 800 μM target peptide ([…]) (SEQ ID NO:1).
Assays were carried out at 25° C. in the presence of 5 nM full-length ATR. An assay stock buffer solution was prepared containing all of the reagents listed above, with the exception of ATP and the test compound of interest. 13.5 μL of the stock solution was placed in a 96 well plate followed by addition of 2 μL of DMSO stock containing serial dilutions of the test compound (typically starting from a final concentration of 15 μM with 3-fold serial dilutions) in duplicate (final DMSO concentration 7%). The plate was pre-incubated for 10 minutes at 25° C. and the reaction initiated by addition of 15 μL [γ-33P]ATP (final concentration 10 μM).
The reaction was stopped after 24 hours by the addition of […] phosphoric acid containing 2 mM ATP. […]
After removing mean background values for all of the data points, Ki(app) data were calculated from non-linear regression analysis of the initial rate data using the Prism software package (GraphPad Prism version 3.0 cx for Macintosh, GraphPad Software, San Diego Calif., USA).

[1] = tested on: HCT116 colorectal cancer cells; experiment: Cisplatin sensitization assay (96 h MTS cell viability); format: cell-based; conditions: Cisplatin sensitization value;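 further: compound concentration needed to lower the IC50 of Cisplatin alone by a set fold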
Summary of the method: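 HCT116 cells were dosed simultaneously with compound and cisplatin as a full matrix of 2-fold serial dilutions from 10 μM top final concentration. Incubation was 96 h at 37° C., 5% CO2, followed by 1 h with MTS reagent for the viability read-out. Sensitization values were binned into +++, ++ and + categories.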

Sequence of full-length ATR (Q13535 whole entry): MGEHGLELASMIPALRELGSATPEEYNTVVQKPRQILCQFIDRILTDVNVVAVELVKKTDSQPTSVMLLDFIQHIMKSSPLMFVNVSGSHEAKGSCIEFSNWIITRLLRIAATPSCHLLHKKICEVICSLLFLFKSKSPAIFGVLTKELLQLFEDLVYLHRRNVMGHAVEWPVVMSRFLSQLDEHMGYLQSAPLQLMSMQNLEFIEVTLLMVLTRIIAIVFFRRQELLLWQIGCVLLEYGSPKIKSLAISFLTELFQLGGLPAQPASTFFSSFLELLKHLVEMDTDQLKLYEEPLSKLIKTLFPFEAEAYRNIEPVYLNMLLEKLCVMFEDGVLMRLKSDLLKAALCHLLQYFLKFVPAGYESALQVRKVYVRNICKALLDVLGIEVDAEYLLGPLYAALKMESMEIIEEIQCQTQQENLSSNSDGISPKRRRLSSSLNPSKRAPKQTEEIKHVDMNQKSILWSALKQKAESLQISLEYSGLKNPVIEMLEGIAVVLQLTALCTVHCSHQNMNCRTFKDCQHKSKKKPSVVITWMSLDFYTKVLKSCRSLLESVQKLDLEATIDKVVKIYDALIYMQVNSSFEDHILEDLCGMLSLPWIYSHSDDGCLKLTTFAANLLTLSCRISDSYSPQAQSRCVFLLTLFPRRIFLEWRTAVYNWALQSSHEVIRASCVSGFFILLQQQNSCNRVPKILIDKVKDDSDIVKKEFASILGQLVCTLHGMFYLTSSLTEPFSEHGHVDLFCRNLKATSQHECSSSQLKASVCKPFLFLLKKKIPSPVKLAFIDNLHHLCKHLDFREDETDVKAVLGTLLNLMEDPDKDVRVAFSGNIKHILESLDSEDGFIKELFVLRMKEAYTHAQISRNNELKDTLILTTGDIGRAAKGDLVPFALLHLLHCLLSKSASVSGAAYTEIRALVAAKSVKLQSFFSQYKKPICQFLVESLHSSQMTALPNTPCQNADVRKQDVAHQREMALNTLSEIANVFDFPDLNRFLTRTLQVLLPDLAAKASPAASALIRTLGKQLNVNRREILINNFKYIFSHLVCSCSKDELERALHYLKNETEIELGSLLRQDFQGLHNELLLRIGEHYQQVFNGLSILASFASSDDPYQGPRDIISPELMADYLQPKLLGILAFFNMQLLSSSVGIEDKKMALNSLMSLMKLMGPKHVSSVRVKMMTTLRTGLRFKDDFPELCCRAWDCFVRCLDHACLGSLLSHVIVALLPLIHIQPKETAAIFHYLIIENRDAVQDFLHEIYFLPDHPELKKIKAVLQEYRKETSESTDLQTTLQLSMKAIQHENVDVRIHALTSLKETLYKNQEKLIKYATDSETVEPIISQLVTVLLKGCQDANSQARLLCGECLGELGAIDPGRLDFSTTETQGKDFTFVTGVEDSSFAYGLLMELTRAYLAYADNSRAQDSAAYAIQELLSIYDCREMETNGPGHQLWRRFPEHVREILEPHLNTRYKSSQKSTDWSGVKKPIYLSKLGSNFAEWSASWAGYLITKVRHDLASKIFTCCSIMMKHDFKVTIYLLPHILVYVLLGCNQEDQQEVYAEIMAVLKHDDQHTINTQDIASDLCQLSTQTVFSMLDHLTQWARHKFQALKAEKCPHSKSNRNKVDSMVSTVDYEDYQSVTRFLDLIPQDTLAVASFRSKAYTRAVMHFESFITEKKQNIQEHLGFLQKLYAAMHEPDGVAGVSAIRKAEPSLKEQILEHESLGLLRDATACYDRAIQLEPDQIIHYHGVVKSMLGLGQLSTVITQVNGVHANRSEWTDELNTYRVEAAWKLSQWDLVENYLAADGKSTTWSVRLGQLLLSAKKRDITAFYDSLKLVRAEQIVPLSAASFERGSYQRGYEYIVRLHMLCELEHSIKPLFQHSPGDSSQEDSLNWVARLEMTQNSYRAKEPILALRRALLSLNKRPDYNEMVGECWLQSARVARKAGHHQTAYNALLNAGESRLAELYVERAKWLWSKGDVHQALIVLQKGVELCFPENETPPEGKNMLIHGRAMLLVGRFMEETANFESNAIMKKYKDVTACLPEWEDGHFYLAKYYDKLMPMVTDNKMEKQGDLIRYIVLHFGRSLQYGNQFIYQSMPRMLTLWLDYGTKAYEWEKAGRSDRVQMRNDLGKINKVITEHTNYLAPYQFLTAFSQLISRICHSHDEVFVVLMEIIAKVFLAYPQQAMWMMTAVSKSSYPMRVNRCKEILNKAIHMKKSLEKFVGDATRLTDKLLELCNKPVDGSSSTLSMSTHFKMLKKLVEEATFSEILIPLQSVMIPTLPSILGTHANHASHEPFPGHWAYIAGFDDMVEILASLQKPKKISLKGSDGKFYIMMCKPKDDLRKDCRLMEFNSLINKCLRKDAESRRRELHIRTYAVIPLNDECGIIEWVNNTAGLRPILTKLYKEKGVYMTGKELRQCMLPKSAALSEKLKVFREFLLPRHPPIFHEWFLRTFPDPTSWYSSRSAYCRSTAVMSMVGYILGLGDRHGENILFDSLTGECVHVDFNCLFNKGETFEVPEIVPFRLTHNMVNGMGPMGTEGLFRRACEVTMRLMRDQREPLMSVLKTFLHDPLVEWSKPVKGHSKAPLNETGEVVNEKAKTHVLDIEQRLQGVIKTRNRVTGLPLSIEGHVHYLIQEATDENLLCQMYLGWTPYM

SMILES	pKi (full-length ATR)	Cisplatin Sensitization Assay [1]
Nc1nn2cc(F)cnc2c1C(=O)Nc1cnccc1OC1CC[S+]([O-])CC1 (stereo not shown) [I-O-44, 2-amino-6-fluoro-N-(4-((1-oxidotetrahydro-2H-thiopyran-4-yl)oxy)pyridin-3-yl)pyrazolo[1,5-a]pyrimidine-3-carboxamide]	6.00 to 8.00	++ (Compounds with a Cisplatin sensitization value >0.02 μM but <0.2 μM are marked with “++.”)
Nc1nn2cc(Cl)cnc2c1C(=O)Nc1cnccc1OC1CC2(CNC2)C1 [I-O-72, N-(4-(2-azaspiro[3.3]heptan-6-yloxy)pyridin-3-yl)-2-amino-6-chloropyrazolo[1,5-a]pyrimidine-3-carboxamide]	–	+ (Compounds with a Cisplatin sensitization value >0.2 μM but <5 μM are marked with “+.”)
Nc1nn2cc(Cl)cnc2c1C(=O)Nc1cnccc1OC1CNC1 [I-O-73, 2-amino-N-(4-(azetidin-3-yloxy)pyridin-3-yl)-6-chloropyrazolo[1,5-a]pyrimidine-3-carboxamide]	–	+ (Compounds with a Cisplatin sensitization value >0.2 μM but <5 μM are marked with “+.”)
Nc1nn2cc(Cl)cnc2c1C(=O)Nc1cnccc1OC1CCCNC1 (stereo not shown) [I-O-75, 2-amino-6-chloro-N-(4-(piperidin-3-yloxy)pyridin-3-yl)pyrazolo[1,5-a]pyrimidine-3-carboxamide]	–	++ (Compounds with a Cisplatin sensitization value >0.02 μM but <0.2 μM are marked with “++.”)
Nc1nn2cc(Cl)cnc2c1C(=O)Nc1cnccc1O[C@H]1CCNC1 [I-O-76, (S)-2-amino-6-chloro-N-(4-(pyrrolidin-3-yloxy)pyridin-3-yl)pyrazolo[1,5-a]pyrimidine-3-carboxamide]	–	++ (Compounds with a Cisplatin sensitization value >0.02 μM but <0.2 μM are marked with “++.”)
Nc1nn2cc(Cl)cnc2c1C(=O)Nc1cnccc1O[C@H]1C[C@]2(CCN2)C1 [I-O-78, N-(4-((4s,6r)-1-azaspiro[3.3]heptan-6-yloxy)pyridin-3-yl)-2-amino-6-chloropyrazolo[1,5-a]pyrimidine-3-carboxamide]	–	+ (Compounds with a Cisplatin sensitization value >0.2 μM but <5 μM are marked with “+.”)
Nc1nn2cc(Cl)cnc2c1C(=O)Nc1cnccc1O[C@H]1C[C@@]2(CCN2)C1 [I-O-79]	–	++ (Compounds with a Cisplatin sensitization value >0.02 μM but <0.2 μM are marked with “++.”)
Nc1nn2cc(Cl)cnc2c1C(=O)Nc1cnccc1OC1CCNCC1 [I-O-80, 2-amino-6-chloro-N-(4-(piperidin-4-yloxy)pyridin-3-yl)pyrazolo[1,5-a]pyrimidine-3-carboxamide]	–	+++ (Compounds with a Cisplatin sensitization value of <0.02 μM are marked with “+++.”)
N#CCc1cnc2c(C(=O)Nc3cnccc3OC3CNC3)c(N)nn2c1 [I-O-82, 2-amino-N-(4-(azetidin-3-yloxy)pyridin-3-yl)-6-(cyanomethyl)pyrazolo[1,5-a]pyrimidine-3-carboxamide]	–	++ (Compounds with a Cisplatin sensitization value >0.02 μM but <0.2 μM are marked with “++.”)
N#CCc1cnc2c(C(=O)Nc3cnccc3OCCN)c(N)nn2c1 [I-O-83, 2-amino-N-(4-(2-aminoethoxy)pyridin-3-yl)-6-(cyanomethyl)pyrazolo[1,5-a]pyrimidine-3-carboxamide]	–	+++ (Compounds with a Cisplatin sensitization value of <0.02 μM are marked with “+++.”)
N#CCc1cnc2c(C(=O)Nc3cnccc3OC3CCNCC3)c(N)nn2c1 [I-O-84, 2-amino-6-(cyanomethyl)-N-(4-(piperidin-4-yloxy)pyridin-3-yl)pyrazolo[1,5-a]pyrimidine-3-carboxamide]	–	++ (Compounds with a Cisplatin sensitization value >0.02 μM but <0.2 μM are marked with “++.”)
Nc1nn2cc(F)cnc2c1C(=O)Nc1cnccc1O[C@H]1CCCNC1 [I-O-85, (S)-2-amino-6-fluoro-N-(4-(piperidin-3-yloxy)pyridin-3-yl)pyrazolo[1,5-a]pyrimidine-3-carboxamide]	–	+++ (Compounds with a Cisplatin sensitization value of <0.02 μM are marked with “+++.”)
N#CCc1cnc2c(C(=O)Nc3cnccc3O[C@@H]3CCNC3)c(N)nn2c1 [I-O-87, (R)-2-amino-6-(cyanomethyl)-N-(4-(pyrrolidin-3-yloxy)pyridin-3-yl)pyrazolo[1,5-a]pyrimidine-3-carboxamide]	–	++ (Compounds with a Cisplatin sensitization value >0.02 μM but <0.2 μM are marked with “++.”)
CC(C)(C)Oc1ccncc1NC(=O)c1c(N)nn2cc(F)cnc12 [I-O-88, 2-amino-N-(4-(tert-butoxy)pyridin-3-yl)-6-fluoropyrazolo[1,5-a]pyrimidine-3-carboxamide]	–	+++ (Compounds with a Cisplatin sensitization value of <0.02 μM are marked with “+++.”)
CN1CCC(Oc2c(F)cncc2NC(=O)c2c(N)nn3cc(F)cnc23)CC1 [I-O-89, 2-amino-6-fluoro-N-(5-fluoro-4-((1-methylpiperidin-4-yl)oxy)pyridin-3-yl)pyrazolo[1,5-a]pyrimidine-3-carboxamide]	–	++ (Compounds with a Cisplatin sensitization value >0.02 μM but <0.2 μM are marked with “++.”)
CNc1cc(OC)c(NC(=O)c2c(N)nn3cc(F)cnc23)cn1 [I-O-90, 2-amino-6-fluoro-N-(4-methoxy-6-(methylamino)pyridin-3-yl)pyrazolo[1,5-a]pyrimidine-3-carboxamide]	–	+ (Compounds with a Cisplatin sensitization value >0.2 μM but <5 μM are marked with “+.”)
Nc1nn2cc(F)cnc2c1C(=O)Nc1cncc(F)c1OC1CCN(C2COC2)CC1 [I-O-91, 2-amino-6-fluoro-N-(5-fluoro-4-((1-(oxetan-3-yl)piperidin-4-yl)oxy)pyridin-3-yl)pyrazolo[1,5-a]pyrimidine-3-carboxamide]	–	++ (Compounds with a Cisplatin sensitization value >0.02 μM but <0.2 μM are marked with “++.”)
Nc1nn2cc(F)cnc2c1C(=O)Nc1cnccc1OC1COC1 [I-O-92, 2-amino-6-fluoro-N-(4-(oxetan-3-yloxy)pyridin-3-yl)pyrazolo[1,5-a]pyrimidine-3-carboxamide]	–	+++ (Compounds with a Cisplatin sensitization value of <0.02 μM are marked with “+++.”)
